Data set [1] in a line: Evaluation test on pharmacokinetic drug interactions through nonclinical models. Format: in vivo. The settings on record: beagle dogs; combined administration with clopidogrel. Here is the method: To determine the effect of esomeprazole (PPI drug) and a compound of Formula 1 on a medicinal effect of clopidogrel, a test on pharmacokinetic drug interactions was performed in such a way that 20 mg of clopidogrel and 20 mg of esomeprazole or 50 mg of the compound of Formula 1 were administered in combination into beagle dogs once or repeatedly (for seven days).
Particularly, clopidogrel was repeatedly administered into ten beagle dogs for seven days, after which esomeprazole and the compound of Formula 1 were administered in combination into those beagle dogs at steady-state for seven days, such that blood was collected therefrom on 5th, 8th and 14th days, to perform a pharmacokinetic analysis before and after the administration.
FIGS. 1 and 2 are graphs of showing a concentration of clopidogrel active metabolites in blood, which was measured after administering esomeprazole and the compound of Formula 1 in combination, respectively.

For data set [2] the following is noted: clopidogrel in direct contact with compound of Formula 1; 40° C./RH 75%, four weeks. Here is the method:
A test on blending compatibility with additives was performed in a state, in which clopidogrel was alone and mixed with a compound of Formula 1.
A ratio of additives to main component was adjusted, after which a change of contents and related substances was evaluated under accelerated test conditions (40° C./RH 75%) for four weeks, such that the results thereof are shown in FIGS. 3 to 5.

We go through 2 compounds from US12128030B2, “Pharmaceutical composition comprising antiplatelet agent and gastric acid secretion inhibitor” (HK INNO.N CORPORATION, priority 2018, dated 2024).

Consider `Cc1nc2c(O[C@H]3CCOc4cc(F)cc(F)c43)cc(C(=O)N(C)C)cc2[nH]1` [compound of Formula 1, (S)-4-[(5,7-difluoro-3,4-dihydro-2H-chromene-4-yl)oxy]-N,N,2-trimethyl-1H-benzimidazole-6-carboxamide], for which the “risk of drug interactions with clopidogrel” value in data set [1] is “low risk of drug interactions”.
As to `COC(=O)[C@H](c1ccccc1Cl)N1CCc2sccc2C1` [clopidogrel, methyl (+)-(S)-α-(2-chlorophenyl)-6,7-dihydrothieno[3,2-c]pyridine-5(4H)-acetate], in data set [2], the “stability of drug (contents and related substances)” value was “stability of a drug deteriorates”.
